Here are results for one compound from publication PMC5740082, “Identification of a CARM1 Inhibitor with Potent In Vitro and In Vivo Activity in Preclinical Models of Multiple Myeloma” (Scientific Reports, 2017).

As usually defined, the fraction unbound is free concentration divided by total concentration. Low readings indicate little free substance, high ones much free substance.

One data set addresses T1, CARM1 (Homo sapiens, UniProt Q86X55).
T1 construct: FLAG-CARM1 (amino acids 2–585)-His for biochemical studies was expressed in 293 F mammalian cells; made in house; host or cells: 293F mammalian cells
T1 sequence (Q86X55 2-585 isoform Q86X55-1): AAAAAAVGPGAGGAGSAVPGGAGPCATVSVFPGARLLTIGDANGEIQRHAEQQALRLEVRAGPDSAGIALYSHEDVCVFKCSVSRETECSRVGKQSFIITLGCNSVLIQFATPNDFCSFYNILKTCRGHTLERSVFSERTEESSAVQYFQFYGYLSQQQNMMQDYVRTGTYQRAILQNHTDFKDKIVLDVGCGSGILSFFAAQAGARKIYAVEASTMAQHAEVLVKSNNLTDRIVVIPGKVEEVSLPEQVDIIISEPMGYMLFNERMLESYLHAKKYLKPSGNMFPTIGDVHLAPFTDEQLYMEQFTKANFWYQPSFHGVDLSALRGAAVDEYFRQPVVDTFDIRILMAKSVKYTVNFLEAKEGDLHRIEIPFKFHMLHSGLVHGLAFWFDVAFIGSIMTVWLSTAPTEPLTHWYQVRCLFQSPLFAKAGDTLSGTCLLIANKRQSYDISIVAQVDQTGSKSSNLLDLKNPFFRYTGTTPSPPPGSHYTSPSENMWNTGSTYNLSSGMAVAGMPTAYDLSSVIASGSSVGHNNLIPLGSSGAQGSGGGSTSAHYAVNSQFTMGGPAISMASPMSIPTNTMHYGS
Nature of the data set: CARM1 histone methyltransferase (biochemical) assay. As for the experimental part:
CARM1 activity was measured as previously reported for the histone methyltransferases PRMT1/6/8[65] and PRMT5[58]. Briefly, CARM1 was preincubated with compounds for 30 minutes at room temperature before reactions were initiated. […] The assays were quenched by the addition of 300 μM unlabeled SAM. The quantity of ^3H-labeled peptide produced was measured by Flashplate on a Topcount reader. Further details can be found in the Supplementary Methods.
Histone methyltransferase assay
The compounds were preincubated with CARM1 for 30 minutes at room temperature before the reactions were initiated by the addition of substrates. […]
containing 20 mM bicine, 1 mM tris(2-carbox yethyl)phosphine, 0.005% bovine skin gelatin and 0.002% Tween-20, pH 7.5 and 2% DMSO. The peptide sequence was biotin-aminohexanoate- […]
eKS AP-amide, where RMe is a monomethylated arginine residue (21st
Century Biochemicals, Marlboro, MA). After 2 hours, assa ys were quenched b y the addition of 300 μM unlabeled SAM. The reactions were tran sferred to a 384-well Flashplate (Perkin Elmer) and the biotinylated peptides were allowed to bind to the streptavidin surface for at least 1 hour before being washed once with 0.1% Tween 20. The quantit y of 3H-labeled peptide bound to the Flashplate surface was counted on a Topcount reader as counts per minute (cpm). % Inhibition values wer e calculated and IC50 values were fit using the 3 -param eter IC50 equation below:
YY = BBBBBBBBBBBB + (100 − BBBBBBBBBBBB )HHHHHHHH CCCCCCCCCCHHCCHHCCCCCC where top is fixed at 100 or the maximum inhibition plateau , Y is % inhibition and X is […]
IC50 vs [peptide] data were fit to the noncom petitive Cheng- Prusoff […]
The effect of reaction time on compound potency was determined b y meas uring IC50 values from […]
to a one phase exponential deca y equation. […]
activity was measured under standard conditions after a 30 minute preincubation.
IC 50 values were d etermi ned and data wer e anal yz ed using the following eq uation: […]

A short description of data set [1]: Plasma protein binding (equilibrium dialysis), rat plasma. The format is in vitro ADME. The conditions noted are these: Sprague-Dawley, pH 7.4. As for the experimental part:
(§1) Hepatocyte stability, plasma protein binding and cytochrome P450 assays were performed using standard procedures. Details can be found in Supplementary Methods. […]
Plasma protein binding was assessed b y equilibrium dial ysis, utilizing the HT-dial ysis cell format with a cellulose semi- permeable membran e (molecular wei ght cut-off of 5000 Da).
(pH 7.4) and 100% mixed gender pooled human, pooled male CD -1 mouse or Sprague-Dawle y rat plasma. The buffer solution was added to one s ide of the membrane and the plasma solution to the other side. Incubations were performed in duplicate for 16 h, at 37°C, in order to allow the compounds to reach equi librium. Haloperidol was incubated in parallel as the control compound for each speci es. At the end of the incubation time, samples were taken from both sides of the membrane. Following protein precipitation, the samples were anal yz ed b y LC-MS/MS using two sets of calibration standards for protein free (7 poi nts) and protein containi ng solutions (6 points). Samples were quantified using standard curves prepared in the equivalent matrix. The fraction unbound in plas ma (fu) was calculated us ing the followin g equ ation: […]
A general note: In equilibrium dialysis free small molecules cross a membrane that holds back macromolecules.

For another data set, the target named is T2, CYP1A2 (Homo sapiens, UniProt P05177).
T2 construct: with human liver microsomes; from tissue; host or cells: human liver microsomes
The data set is described as follows: Cytochrome P450 inhibition. The format is in vitro ADME. The conditions noted are these: human liver microsomes, tested up to 25 µM. As for the experimental part:
as §1
(§2) Cytochrome P450 Inhibition (IC50 Determination) […]
(§3) with human liver microsomes (0.1 to 1 mg/m L) and NADPH (1 mM) in the presence of specific probe substrates at 37°C. Probe substrates and incubation times were: phenacetin (30 µM, 5 min), tolbutamide (120 µM, 60 min), mephenytoi n (25 µM, 60 min) and dextromethorphan (5 µM, 5 min) for CYP1A2, CYP2C9, CYP2C19 and CYP2D6, respectivel y. For CYP3A4, midazolam (2.5 µM, 5 min) andtestosterone (50 µM, 5 min) were used as probe substrates. […]
(§4) isoform. All reactions were terminated b y addition of methanol prior to cent rifugation and addition of internal standard to the supernatants. For CYP2C9, CYP2C19, CYP2D6 and CYP3A4 (midazolam) incubations, the supernat ants were combined for the simultaneous anal ysis o f 4-h ydrox ytol butamide, 4- hydrox ymephenytoin, dextrorphan and 1-hydrox ymidazolam b y LC-MS/MS. For the CYP1A2 and CYP3A4 (testosterone) incubations, the supernatants were anal yzed individuall y for acetaminophen and 6ß-h ydrox ytestosterone b y LC -MS/MS. A decrease i n the formation of the metabolites compared to vehicle control was used to calculate an IC50 value.
For orientation: Microsomes from liver hold many membrane-bound enzymes, among them those of drug oxidation.

The next data set addresses T3, CYP2C19 (Homo sapiens, UniProt P33261).
T3 construct: with human liver microsomes; from tissue; host or cells: human liver microsomes
The data set is described as follows: Cytochrome P450 inhibition. The conditions noted are these: human liver microsomes, tested up to 25 µM. The format is in vitro ADME. As for the experimental part: as §1, §2, §3, §4

The next data set concerns the target T4, CYP2C9 (Homo sapiens, UniProt P11712).
T4 construct: with human liver microsomes; from tissue; host or cells: human liver microsomes
Nature of the data set: Cytochrome P450 inhibition. The format is in vitro ADME. The following applies: human liver microsomes, tested up to 25 µM. As for the experimental part:
as §1, §2, §3, §4

The target in another data set is T5, CYP2D6 (Homo sapiens, UniProt P10635).
T5 construct: with human liver microsomes; from tissue; host or cells: human liver microsomes
The data set is described as follows: Cytochrome P450 inhibition. The format is in vitro ADME. The following applies: human liver microsomes, tested up to 25 µM. As for the experimental part: as §1, §2, §3, §4

The target in a further data set is T6, CYP3A4 (Homo sapiens, UniProt P08684).
T6 construct: with human liver microsomes; from tissue; host or cells: human liver microsomes
The data set is described as follows: Cytochrome P450 inhibition. The following applies: human liver microsomes, tested up to 25 µM. The format is in vitro ADME. As for the experimental part: as §1, §2, §3, §4

The structures appear in SMILES notation.

T5 sequence (P10635 whole entry): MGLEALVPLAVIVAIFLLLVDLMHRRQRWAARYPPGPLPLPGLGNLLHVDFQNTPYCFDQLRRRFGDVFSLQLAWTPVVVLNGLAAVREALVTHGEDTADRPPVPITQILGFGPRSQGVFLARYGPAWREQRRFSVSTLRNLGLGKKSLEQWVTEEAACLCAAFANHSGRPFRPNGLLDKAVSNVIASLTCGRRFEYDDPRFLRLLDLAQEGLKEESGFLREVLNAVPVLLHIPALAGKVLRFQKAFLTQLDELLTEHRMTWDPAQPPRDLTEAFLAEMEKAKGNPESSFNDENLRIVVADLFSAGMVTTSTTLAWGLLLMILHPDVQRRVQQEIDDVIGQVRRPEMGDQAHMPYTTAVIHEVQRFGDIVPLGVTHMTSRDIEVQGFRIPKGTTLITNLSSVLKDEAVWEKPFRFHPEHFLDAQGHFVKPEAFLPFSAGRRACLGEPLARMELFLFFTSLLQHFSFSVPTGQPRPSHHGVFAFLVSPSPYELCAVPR
T6 sequence (P08684 whole entry): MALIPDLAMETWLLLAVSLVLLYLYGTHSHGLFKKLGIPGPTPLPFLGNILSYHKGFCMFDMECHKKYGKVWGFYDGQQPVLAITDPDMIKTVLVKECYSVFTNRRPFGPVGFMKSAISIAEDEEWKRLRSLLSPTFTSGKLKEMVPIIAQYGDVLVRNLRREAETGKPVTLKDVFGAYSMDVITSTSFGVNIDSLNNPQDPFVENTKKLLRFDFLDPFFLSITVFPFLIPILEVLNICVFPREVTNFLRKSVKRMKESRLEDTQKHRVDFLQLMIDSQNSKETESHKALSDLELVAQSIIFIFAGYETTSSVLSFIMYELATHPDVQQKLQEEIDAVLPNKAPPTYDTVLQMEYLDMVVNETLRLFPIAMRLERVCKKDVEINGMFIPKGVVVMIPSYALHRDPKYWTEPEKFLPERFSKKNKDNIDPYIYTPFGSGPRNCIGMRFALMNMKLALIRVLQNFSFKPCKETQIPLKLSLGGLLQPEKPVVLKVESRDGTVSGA
T3 sequence (P33261 whole entry): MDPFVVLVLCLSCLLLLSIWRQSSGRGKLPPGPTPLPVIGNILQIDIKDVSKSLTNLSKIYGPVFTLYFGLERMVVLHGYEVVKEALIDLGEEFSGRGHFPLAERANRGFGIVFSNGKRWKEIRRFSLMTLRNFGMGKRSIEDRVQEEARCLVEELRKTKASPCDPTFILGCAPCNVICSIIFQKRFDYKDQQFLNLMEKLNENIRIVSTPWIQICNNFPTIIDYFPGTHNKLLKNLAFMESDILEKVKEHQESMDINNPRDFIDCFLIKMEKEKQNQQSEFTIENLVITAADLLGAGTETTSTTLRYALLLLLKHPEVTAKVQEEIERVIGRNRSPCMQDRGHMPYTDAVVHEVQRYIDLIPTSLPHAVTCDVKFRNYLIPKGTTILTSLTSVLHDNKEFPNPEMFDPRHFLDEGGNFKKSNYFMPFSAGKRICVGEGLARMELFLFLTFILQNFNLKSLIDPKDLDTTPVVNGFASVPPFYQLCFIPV
T4 sequence (P11712 whole entry): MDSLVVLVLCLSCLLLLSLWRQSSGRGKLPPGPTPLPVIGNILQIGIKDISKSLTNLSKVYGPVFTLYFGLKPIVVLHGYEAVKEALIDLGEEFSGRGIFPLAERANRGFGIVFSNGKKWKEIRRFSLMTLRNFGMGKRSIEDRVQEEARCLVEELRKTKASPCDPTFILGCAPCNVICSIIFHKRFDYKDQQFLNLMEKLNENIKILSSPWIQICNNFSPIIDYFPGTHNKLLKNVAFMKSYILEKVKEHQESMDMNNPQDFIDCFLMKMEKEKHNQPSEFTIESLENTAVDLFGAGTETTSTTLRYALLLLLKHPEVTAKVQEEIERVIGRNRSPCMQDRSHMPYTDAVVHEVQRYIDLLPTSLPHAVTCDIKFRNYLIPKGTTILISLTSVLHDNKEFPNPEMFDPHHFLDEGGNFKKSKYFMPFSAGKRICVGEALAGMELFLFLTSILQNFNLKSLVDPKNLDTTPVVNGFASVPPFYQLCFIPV
T2 sequence (P05177 whole entry): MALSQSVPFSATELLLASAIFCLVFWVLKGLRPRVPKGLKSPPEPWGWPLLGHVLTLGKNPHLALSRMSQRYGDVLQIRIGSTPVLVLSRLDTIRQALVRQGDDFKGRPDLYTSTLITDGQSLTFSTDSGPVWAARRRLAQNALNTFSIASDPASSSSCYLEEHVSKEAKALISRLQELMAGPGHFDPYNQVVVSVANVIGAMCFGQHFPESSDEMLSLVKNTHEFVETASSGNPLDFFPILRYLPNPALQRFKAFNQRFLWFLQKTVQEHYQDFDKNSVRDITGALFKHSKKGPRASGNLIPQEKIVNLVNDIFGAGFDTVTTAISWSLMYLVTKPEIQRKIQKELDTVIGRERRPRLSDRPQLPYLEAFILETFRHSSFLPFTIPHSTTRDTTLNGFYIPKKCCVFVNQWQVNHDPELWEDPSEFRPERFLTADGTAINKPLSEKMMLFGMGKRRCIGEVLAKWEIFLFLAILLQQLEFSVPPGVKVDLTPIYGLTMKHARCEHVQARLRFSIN

For `CNC[C@@H](O)COc1ccc(Cl)c(-c2nc(-c3c(C)noc3C)c(C)c(N3CC4(CCN(C(=O)OC)CC4)C3)n2)c1` [EZM2302], the “α value (dual inhibitor study with SAH)” value at CARM1 (varying EZM2302 and SAH) is 0.2. In addition, the “α (noncompetitive fit, substrate competition)” value on CARM1 (varying peptide concentrations) is 0.2. For the same compound, in data set [1], the fraction unbound at 16 h, 5 µM came out at 0.74. Further, the CYP1A2 inhibition entry at CYP1A2 is given as “did not inhibit”. For the same compound, the CYP2C19 inhibition result at CYP2C19 is recorded as “did not inhibit”. Besides, the CYP2C9 inhibition entry at CYP2C9 is listed as “did not inhibit”. Besides, the CYP2D6 inhibition entry at CYP2D6 is reported as “did not inhibit”. For the same compound, the CYP3A4 inhibition entry on CYP3A4 was “did not inhibit”.
